From US11845782B2, “Relaxin fusion polypeptides and uses thereof” (MedImmune Limited, priority 2017, dated 2023)
Residue numbers refer to the chain shown, from its start.

B1: Fc-YTE-hRLX2-15-15AA: As Fc_hRLX2_15-15AA with YTE mutations in Fc; SEQ ID NO. 22 (protein)
chain: DKTHTCPPCPAPELLGGPSVFLFPPKPKDTLYITREPEVTCVVVDVSHEDPEVKFNWYVDGVEVHNAKTKPREEQYNSTYRVVSVLTVLHQDWLNGKEYKCKVSNKALPAPIEKTISKAKGQPREPQVYTLPPSRDELTKNQVSLTCLVKGFYPSDIAVEWESNGQPENNYKTTPPVLDSDGSFFLYSKLTVDKSRWQQGNVFSCSVMHEALHNHYTQKSLSLSPGKGGGGSGGGGSGGGGSQLYSALANKCCHVGCTKRSLARFCGGGGSGGGGSGGGGSSWMEEVIKLCGRELVRAQIAICGMSTWS
modifications: fusion protein
B2: Fc-YTE-FQQ_hRLX2_15-15A: As Fc_hRLX2_15-15AA with YTE and FQQ mutations in Fc; SEQ ID NO. 26 (protein)
chain: B1 chain with L14F, L15Q, K102Q
modifications: fusion protein
B3: Fc-YTE-TM_hRLX2_15-15A: As Fc_hRLX2_15-15AA with YTE and TM mutations in Fc; SEQ ID NO. 24 (protein)
chain: B1 chain with L14F, L15E, P111S
modifications: fusion protein

Columns and labels:
[1] = test system: isoproterenol-induced cardiac hypertrophy; assay: Isoproterenol-induced cardiac hypertrophy and fibrosis in mice (Example 8); assay type: in vivo, C57BL/6J male mice; conditions: given concomitantly with isoproterenol 15 mg/kg/day, 2 weeks
Protocol: A total of 6 study groups with n=8 mice (C57BL/6J male mice) per group were performed. The groups were: vehicle, Fc_hRLX2_15-15AA, isoproterenol, isoproterenol+enalapril, isoproterenol+recombinant human relaxin 2, and isoproterenol+Fc_hRLX2_15-15AA. Drugs and vehicle were delivered by Alzet minipumps (model 1002; rate: 0.25 μl/hr (±0.05), 6 μl one day @37° C.) or subcutaneous injection for Fc_hRLX2_15-15AA.
Isoproterenol was made as follows: A 500 mM solution (123.9 mg/ml) freshly in 0.0002% Na-Asc saline, […] filtered). The final [Iso] concentration in minipump: 15 mg/kg/day=15 mg/247.72/6 μl/1000 g=10.1 mM per gram of body weight (BVV). Vehicle was 0.0002% Na-ascorbate, Sigma catalog #A7631.
Enalapril was made as follows: Enalapril is used as maleate salt, MW of 492.52, Sigma catalog #E6888. A 200 mM stock solution (98.5 mg/ml) freshly in methanol, […] filtered. The final concentration in minipump: 2.5 mg/kg/day=2.5 mg/492.52/6 μl/1000 g=0.846 mM per gram of body weight (BVV), i.e., one minipump for 30 gram of mouse will need 19.0 μl of 200 mM Ena (150 μl×0.846/200 mM×30 g BW).
Isoproterenol+Enalapril: Isoproterenol and enalapril made as described above were included in the pump.
At the end of the study, body weight, heart weight, lung weight, and tibia length were measured. Additionally, histology and collagen assays were performed using the heart samples.
Fibrosis was measured based on the detection of hydroxyproline (Total collagen assay, QuickZyme Biosciences). Histology (H & E and Masson Trichrome) was also carried out on formalin treated heart tissue following 2 weeks of treatments.

[2] = test system: VEGF expression in THP-1 cells; assay: VEGF mRNA induction in THP-1 cells, quantitative real-time PCR (Example 4); assay type: cell-based, human; conditions: 0.01, 0.06, and 10 ng/ml; 2.5 h
Protocol: The ability of the Relaxin 2 fusion polypeptides to induce the expression of VEGF, a known downstream target of Relaxin 2 (Xiao et al., 2013), was assayed. The expression of VEGF RNA in THP-1 cells (Catalogue number TIB-202, ATCC) was analyzed by quantitative real-time PCR. A total of […] was seeded in a 24-well flat bottom plate (Catalogue number 353226, Corning) in 400 μl test media (RPMI-1640 without phenol red, 0.5% FBS, 1% Pen/Strep and 0.05 mM of 2-mercaptoethanol). After 24 h incubation at 37° C., 5% CO2, human relaxin-2 (Catalogue number 3956-RN, R&D Systems) or Fc-hRelaxin-2 fusion polypeptides, were added to the cells in the plate for 2.5 h at 37° C. RNA isolation and purification from THP-1 cells was performed using Qiagen's QiaShredder (Catalogue number 79656, Qiagen) and RNA Plus Mini Kit (Catalogue number 74134, Qiagen), following the manufacturer's protocol. The mRNA concentrations were measured by NanoDrop (Thermofisher) and samples were normalized to the same starting concentration (range between RT-PCR set up; 50-20 ng/μl). […] The relative fold change in VEGF mRNA level was calculated by the comparative Ct method using GAPDH expression for normalization. Results were calculated as fold changes over no treatment control. […] Data was analyzed by paired two tailed t-test utilizing Prism GraphPad, V6.

[3] = intravenous administration, cited from earlier work
[4] = Mouse PK profile, FcRn transgenic mouse, Fc capture and Relaxin detection ELISA (Example 6); assay type: in vivo; conditions: IV or SC, 6 mg/kg

| Molecule | isoproterenol-induced increase in cardiac hypertrophy (HW/TL) [1] | isoproterenol-induced increase in fibrosis (collagen content) [1] | half-life offered by the YTE mutations [4] | also measured |
| --- | --- | --- | --- | --- |
| rhRLX2: Recombinant human Relaxin-2, R&D Systems (catalogue 6586-RN-025; 3956-RN in VEGF assay), positive control; mature A/B chain array (chain 1 QLYSALANKCCHVGCTKRSLARFC; chain 2 DSWMEEVIKLCGRELVRAQIAICGMSTWS) | significantly attenuated | significantly attenuated | – | VEGF transcripts in THP-1 cells vs no treatment control [2]: significantly increased |
| serelaxin | – | – | – | proportion of patients with significant blood pressure drop (>40 mm Hg) [3]: approximately one third; markers of cardiac, renal and hepatic damage and congestion ([3]; patients): improved |
| CCOC(=O)[C@H](CCc1ccccc1)N[C@@H](C)C(=O)N1CCC[C@H]1C(=O)O [enalapril] | significantly attenuated | significantly attenuated | – | – |
| B1 | – | – | extended half-life | – |
| B2 | – | – | extended half-life | – |
| B3 | – | – | extended half-life | – |
